Results as given in patent US20070049564A1 (Wyeth, priority 2005, published 2007).
Like-named read-outs stand apart in the source and are kept apart here.

Columns and labels:
[1] = system: E. coli GC 2236; experiment: MIC, broth microdilution; details: Escherichia coli
[2] = system: E. coli GC 2235; experiment: MIC, broth microdilution; details: Escherichia coli
[3] = system: E. coli GC 2233; experiment: MIC, broth microdilution; details: Escherichia coli
[4] = system: E. coli GC 2234; experiment: MIC, broth microdilution; details: Escherichia coli
[5] = system: E. coli GC 2270; experiment: MIC, broth microdilution; details: Escherichia coli
[6] = system: E. coli GC 2271; experiment: MIC, broth microdilution; details: Escherichia coli
[7] = system: E. coli GC 4559; experiment: MIC, broth microdilution; details: Escherichia coli
[8] = system: E. coli GC 1073; experiment: MIC, broth microdilution; details: Escherichia coli
[9] = system: P. aeruginosa GC 2214; experiment: MIC, broth microdilution; details: Pseudomonas aeruginosa
[10] = system: S. aureus GC 1131; experiment: MIC, broth microdilution; details: Staphylococcus aureus
[11] = system: S. aureus GC 1079; experiment: MIC, broth microdilution; details: Staphylococcus aureus
[12] = system: S. aureus GC 2216; experiment: MIC, broth microdilution; details: Staphylococcus aureus
Method: (§1) Antimicrobial susceptibility testing. The in vitro activities of the antibiotics are determined by the broth microdilution method as recommended by the National Committee for Clinical Laboratory Standards (NCCLS) (1). Mueller-Hinton II broth (MHBII)(BBL Cockeysville, Md.) is the medium employed in the testing procedures. Microtiter plates containing serial dilutions of each antimicrobial agent are inoculated with each organism to yield the appropriate density (10^5 CFU/ml) in a 100 μl final volume. The plates are incubated for 18-22 hours at 35° C. in ambient air. […] Standard Pharmacological Test Procedures
(§2) Presented in Tables I-XIII are representative compounds of Formula I which were evaluated against a panel of 40 selected gram-positive and gram-negative bacteria strains by pre-incubation in water, mouse serum or human serum. Representative compounds were first incubated in mouse serum for an hour prior to the in vitro testing against a panel of selected gram-positive and gram-negative bacteria strains. All compounds were also pre-incubated in water for an hour prior to testing as control. Representative compounds of Formula I were incubated in human serum prior to MIC determination.

[13] = system: S. aureus GC 6335; experiment: MIC, broth microdilution; details: Staphylococcus aureus
[14] = system: S. epidermidis GC 4935; experiment: MIC, broth microdilution; details: Staphylococcus epidermidis
[15] = system: E. faecalis GC 2242; experiment: MIC, broth microdilution; details: Enterococcus faecalis
[16] = system: E. faecium GC 4556; experiment: MIC, broth microdilution; details: Enterococcus faecium
[17] = system: S. pneumoniae+ GC 4465; experiment: MIC, broth microdilution; details: Streptococcus pneumoniae
[18] = system: S. pyogenes GC 4563; experiment: MIC, broth microdilution; details: Streptococcus pyogenes
Method: as §1, §2

[19] = system: c. albicans GC 3066; experiment: MIC, broth microdilution
[20] = system: Staph. aureus Smith; experiment: In vivo activity (oral, iv; ED50) against Staph. aureus Smith in mice
Method: Representative examples of compounds of Formula I were tested for the oral efficacy using S. aureus Smith in mice.

CN(C)c1cc(NC(=O)CN(C(=O)OCOC(=O)c2ccc(F)cc2)C(C)(C)C)c(O)c2c1C[C@H]1C[C@H]3[C@H](N(C)C)C(O)=C(C(N)=O)C(=O)[C@@]3(O)C(O)=C1C2=O [Example 52, ({[(2-{[(5aR,6aS,7S,10aS)-9-(aminocarbonyl)-4,7-bis(dimethylamino)-1,8,10a,11-tetrahydroxy-10,12-dioxo-5,5a,6,6a,7,10,10a,12-octahydrotetracen-2-yl]amino}-2-oxoethyl)(tert-butyl)amino]carbonyl}oxy)methyl 4-fluorobenzoate]
4 µg/mL: MIC ([2]; GC2235, read-out: MINIMAL INHIBITORY CONCENTRATION MIC, Human Serum) | MIC ([2]; GC2235, read-out: MINIMAL INHIBITORY CONCENTRATION MIC, Water) | MIC ([4]; GC2234, read-out: MINIMAL INHIBITORY CONCENTRATION MIC, Human Serum) | MIC ([5]; GC2270, read-out: MINIMAL INHIBITORY CONCENTRATION MIC, Human Serum) | MIC ([5]; GC2270, read-out: MINIMAL INHIBITORY CONCENTRATION MIC, Water) | MIC ([6]; GC2271, read-out: MINIMAL INHIBITORY CONCENTRATION MIC, Human Serum) | MIC ([6]; GC2271, read-out: MINIMAL INHIBITORY CONCENTRATION MIC, Water) | MIC ([8]; GC1073, read-out: MINIMAL INHIBITORY CONCENTRATION MIC, Water) | MIC ([12]; GC2216, read-out: MINIMAL INHIBITORY CONCENTRATION MIC, Water) | MIC ([13]; GC6335, read-out: MINIMAL INHIBITORY CONCENTRATION MIC, Water) | MIC ([14]; GC4935, read-out: MINIMAL INHIBITORY CONCENTRATION MIC, Human Serum) | MIC ([14]; GC4935, read-out: MINIMAL INHIBITORY CONCENTRATION MIC, Water) | MIC ([15]; GC2242, read-out: MINIMAL INHIBITORY CONCENTRATION MIC, Human Serum) | MIC ([15]; GC2242, read-out: MINIMAL INHIBITORY CONCENTRATION MIC, Water) | MIC ([16]; GC4556, read-out: MINIMAL INHIBITORY CONCENTRATION MIC, Water) | MIC ([17]; read-out: MINIMAL INHIBITORY CONCENTRATION MIC, Human Serum)
8 µg/mL: MIC ([1]; GC2236, read-out: MINIMAL INHIBITORY CONCENTRATION MIC, Human Serum) | MIC ([1]; GC2236, read-out: MINIMAL INHIBITORY CONCENTRATION MIC, Water) | MIC ([3]; GC2233, read-out: MINIMAL INHIBITORY CONCENTRATION MIC, Human Serum) | MIC ([3]; GC2233, read-out: MINIMAL INHIBITORY CONCENTRATION MIC, Water) | MIC ([4]; GC2234, read-out: MINIMAL INHIBITORY CONCENTRATION MIC, Water) | MIC ([7]; GC4559, read-out: MINIMAL INHIBITORY CONCENTRATION MIC, Human Serum) | MIC ([7]; GC4559, read-out: MINIMAL INHIBITORY CONCENTRATION MIC, Water) | MIC ([8]; GC1073, read-out: MINIMAL INHIBITORY CONCENTRATION MIC, Human Serum)
10.7 mg/kg: ED50 ([20]; Staphylococcus aureus, in Mus musculus, po, read-out: ED50 SOD (Staph aureus Smith)) | ED50 ([20]; Staphylococcus aureus, in Mus musculus, po, read-out: ED50 Staph Smith SOD)
64 µg/mL: MIC ([9]; GC2214, read-out: MINIMAL INHIBITORY CONCENTRATION MIC, Mouse Serum)
0.25 µg/mL: MIC ([18]; GC4563, read-out: MINIMAL INHIBITORY CONCENTRATION MIC, Human Serum) | MIC ([18]; GC4563, read-out: MINIMAL INHIBITORY CONCENTRATION MIC, Water)
>64 UG/ML: MINIMAL INHIBITORY CONCENTRATION MIC ([19]; Human Serum) | MINIMAL INHIBITORY CONCENTRATION MIC ([19]; Mouse Serum)
1 µg/mL: MIC ([1]; GC2236, read-out: MINIMAL INHIBITORY CONCENTRATION MIC, Mouse Serum) | MIC ([7]; GC4559, read-out: MINIMAL INHIBITORY CONCENTRATION MIC, Mouse Serum) | MIC ([8]; GC1073, read-out: MINIMAL INHIBITORY CONCENTRATION MIC, Mouse Serum) | MIC ([10]; GC1131, read-out: MINIMAL INHIBITORY CONCENTRATION MIC, Human Serum) | MIC ([11]; GC1079, read-out: MINIMAL INHIBITORY CONCENTRATION MIC, Human Serum) | MIC ([12]; GC2216, read-out: MINIMAL INHIBITORY CONCENTRATION MIC, Human Serum) | MIC ([13]; GC6335, read-out: MINIMAL INHIBITORY CONCENTRATION MIC, Mouse Serum) | MIC ([14]; GC4935, read-out: MINIMAL INHIBITORY CONCENTRATION MIC, Mouse Serum) | MIC ([17]; read-out: MINIMAL INHIBITORY CONCENTRATION MIC, Mouse Serum)
0.12 µg/mL: MIC ([18]; GC4563, read-out: MINIMAL INHIBITORY CONCENTRATION MIC, Mouse Serum)
> 64 µg/mL: MIC ([9]; GC2214, read-out: MINIMAL INHIBITORY CONCENTRATION MIC, Human Serum) | MIC ([9]; GC2214, read-out: MINIMAL INHIBITORY CONCENTRATION MIC, Water) | MIC ([19]; Candida albicans, GC3066, read-out: MINIMAL INHIBITORY CONCENTRATION MIC)
2 µg/mL: MIC ([10]; GC1131, read-out: MINIMAL INHIBITORY CONCENTRATION MIC, Water) | MIC ([11]; GC1079, read-out: MINIMAL INHIBITORY CONCENTRATION MIC, Water) | MIC ([13]; GC6335, read-out: MINIMAL INHIBITORY CONCENTRATION MIC, Human Serum) | MIC ([16]; GC4556, read-out: MINIMAL INHIBITORY CONCENTRATION MIC, Human Serum) | MIC ([17]; read-out: MINIMAL INHIBITORY CONCENTRATION MIC, Water)
1.29 mg/kg: ED50 ([20]; Staphylococcus aureus, in Mus musculus, iv, read-out: ED50 SIV (Staph aureus Smith)) | ED50 ([20]; iv, read-out: ED50 Staph Smith SIV)
0.5 µg/mL: MIC ([2]; GC2235, read-out: MINIMAL INHIBITORY CONCENTRATION MIC, Mouse Serum) | MIC ([3]; GC2233, read-out: MINIMAL INHIBITORY CONCENTRATION MIC, Mouse Serum) | MIC ([4]; GC2234, read-out: MINIMAL INHIBITORY CONCENTRATION MIC, Mouse Serum) | MIC ([5]; GC2270, read-out: MINIMAL INHIBITORY CONCENTRATION MIC, Mouse Serum) | MIC ([6]; GC2271, read-out: MINIMAL INHIBITORY CONCENTRATION MIC, Mouse Serum) | MIC ([10]; GC1131, read-out: MINIMAL INHIBITORY CONCENTRATION MIC, Mouse Serum) | MIC ([11]; GC1079, read-out: MINIMAL INHIBITORY CONCENTRATION MIC, Mouse Serum) | MIC ([12]; GC2216, read-out: MINIMAL INHIBITORY CONCENTRATION MIC, Mouse Serum) | MIC ([15]; GC2242, read-out: MINIMAL INHIBITORY CONCENTRATION MIC, Mouse Serum) | MIC ([16]; GC4556, read-out: MINIMAL INHIBITORY CONCENTRATION MIC, Mouse Serum)
